Assay type in all cases: binding
Experiment [1] deals with T1, JAK1 (Homo sapiens, UniProt P23458).
T1 construct: screened for activity against several kinases in Jurkat cells; endogenous in cells; host or cells: Jurkat cell lysate
In words: Probe-based (AX9989) kinase profiling in Jurkat lysate: JAK1. The following applies: read-out: Kinase inhibition % at indicated screening concentration: JAK1; for inhibition at 1 µM: screening concentration 1.0 μM; for inhibition at 0.1 µM: screening concentration 0.1 μM. Summed up: (§1)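 Jurkat lysate (50 mM HEPES pH 7.5, 150 mM NaCl, 0.1% Triton X-100, 20 mM MnCl2) pre-incubated 15 min with compound at room temperature, then labeled with 5 μM acyl phosphate ATP probe AX9989. Tryptic probe-labeled peptides streptavidin-captured and quantified by LC/MS; percent inhibition from decreased fragment intensity versus untreated.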

In experiment [2] the target is T2, ACK (Homo sapiens, UniProt Q07912).
T2 construct: screened for activity against several kinases in Jurkat cells; endogenous in cells; host or cells: Jurkat cell lysate
T2 sequence (Q07912 whole entry): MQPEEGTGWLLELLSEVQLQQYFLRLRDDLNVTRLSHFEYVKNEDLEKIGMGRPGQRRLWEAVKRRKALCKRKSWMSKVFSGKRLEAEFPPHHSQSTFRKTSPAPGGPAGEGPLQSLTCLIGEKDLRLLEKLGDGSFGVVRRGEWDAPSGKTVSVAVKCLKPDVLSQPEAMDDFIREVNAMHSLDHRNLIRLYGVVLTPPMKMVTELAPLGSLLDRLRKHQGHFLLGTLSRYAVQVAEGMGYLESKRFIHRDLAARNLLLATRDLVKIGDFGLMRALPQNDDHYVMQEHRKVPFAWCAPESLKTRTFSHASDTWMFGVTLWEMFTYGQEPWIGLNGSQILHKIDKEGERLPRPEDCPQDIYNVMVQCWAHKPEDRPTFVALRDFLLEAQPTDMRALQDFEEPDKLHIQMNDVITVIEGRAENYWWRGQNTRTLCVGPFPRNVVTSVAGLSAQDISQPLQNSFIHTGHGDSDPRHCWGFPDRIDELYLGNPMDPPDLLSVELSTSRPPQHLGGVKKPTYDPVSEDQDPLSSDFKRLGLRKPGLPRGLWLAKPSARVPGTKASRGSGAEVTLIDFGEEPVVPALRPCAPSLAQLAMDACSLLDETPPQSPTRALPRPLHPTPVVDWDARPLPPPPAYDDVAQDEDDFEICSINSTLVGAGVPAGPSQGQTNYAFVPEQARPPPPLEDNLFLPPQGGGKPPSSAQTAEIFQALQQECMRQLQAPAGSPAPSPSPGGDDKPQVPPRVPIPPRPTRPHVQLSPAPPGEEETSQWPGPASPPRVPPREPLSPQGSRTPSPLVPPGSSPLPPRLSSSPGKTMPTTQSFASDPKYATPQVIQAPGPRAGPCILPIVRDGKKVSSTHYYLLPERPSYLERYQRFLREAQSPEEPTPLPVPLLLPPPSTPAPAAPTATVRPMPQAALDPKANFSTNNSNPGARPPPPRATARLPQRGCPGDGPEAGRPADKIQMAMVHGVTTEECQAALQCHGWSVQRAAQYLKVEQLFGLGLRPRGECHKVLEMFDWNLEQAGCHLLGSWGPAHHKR
Nature of the experiment: Probe-based (AX9989) kinase profiling in Jurkat lysate: ACK. As to conditions: read-out: Kinase inhibition % at indicated screening concentration: ACK; for inhibition at 1 µM: screening concentration 1.0 μM; for inhibition at 0.1 µM: screening concentration 0.1 μM. In short, it runs like this: as §1

The target in experiment [3] is T3, TAO2 (Homo sapiens, UniProt Q9UL54).
T3 construct: screened for activity against several kinases in Jurkat cells; endogenous in cells; host or cells: Jurkat cell lysate
T3 sequence (Q9UL54 1-1235): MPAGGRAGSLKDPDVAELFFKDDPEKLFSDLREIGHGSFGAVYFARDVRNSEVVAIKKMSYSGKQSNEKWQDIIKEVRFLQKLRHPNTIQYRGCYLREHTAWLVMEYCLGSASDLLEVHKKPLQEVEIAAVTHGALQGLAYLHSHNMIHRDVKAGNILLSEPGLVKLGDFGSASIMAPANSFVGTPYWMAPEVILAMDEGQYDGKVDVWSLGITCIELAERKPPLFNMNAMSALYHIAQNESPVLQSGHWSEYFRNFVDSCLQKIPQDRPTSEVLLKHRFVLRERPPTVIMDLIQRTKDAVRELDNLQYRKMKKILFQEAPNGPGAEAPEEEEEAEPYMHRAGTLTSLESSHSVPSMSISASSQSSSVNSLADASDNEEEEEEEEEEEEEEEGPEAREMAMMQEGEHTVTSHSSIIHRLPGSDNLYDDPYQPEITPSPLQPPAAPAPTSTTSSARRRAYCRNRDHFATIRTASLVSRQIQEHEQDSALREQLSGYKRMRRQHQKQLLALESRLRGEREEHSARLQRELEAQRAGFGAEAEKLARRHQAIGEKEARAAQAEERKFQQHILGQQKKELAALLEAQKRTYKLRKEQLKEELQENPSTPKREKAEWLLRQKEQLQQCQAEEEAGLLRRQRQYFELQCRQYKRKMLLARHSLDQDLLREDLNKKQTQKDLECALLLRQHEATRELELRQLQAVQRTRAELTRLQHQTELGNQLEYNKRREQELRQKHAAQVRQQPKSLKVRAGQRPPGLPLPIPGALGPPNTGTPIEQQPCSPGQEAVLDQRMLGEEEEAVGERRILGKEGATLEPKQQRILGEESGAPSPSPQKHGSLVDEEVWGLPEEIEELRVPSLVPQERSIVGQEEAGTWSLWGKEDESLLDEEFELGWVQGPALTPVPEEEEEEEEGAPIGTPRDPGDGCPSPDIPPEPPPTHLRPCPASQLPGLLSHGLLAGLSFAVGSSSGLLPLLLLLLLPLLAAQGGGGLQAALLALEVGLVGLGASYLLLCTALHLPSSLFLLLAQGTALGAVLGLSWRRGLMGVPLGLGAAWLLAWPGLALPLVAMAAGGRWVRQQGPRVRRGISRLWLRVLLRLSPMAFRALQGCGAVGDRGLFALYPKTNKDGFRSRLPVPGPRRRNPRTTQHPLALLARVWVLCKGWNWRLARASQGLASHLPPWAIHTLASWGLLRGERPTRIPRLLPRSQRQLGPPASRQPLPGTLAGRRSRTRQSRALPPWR
In words: Probe-based (AX9989) kinase profiling in Jurkat lysate: TAO2. The following applies: read-out: Kinase inhibition % at indicated screening concentration: TAO2; for inhibition at 1 µM: screening concentration 1.0 μM; for inhibition at 0.1 µM: screening concentration 0.1 μM. In short, it runs like this: as §1

Experiment [4] deals with AMPKa1 or AMPKa2. Nature of the experiment: Probe-based (AX9989) kinase profiling in Jurkat lysate: AMPKa1 or AMPKa2. In short, it runs like this: as §1
For experiment [5], the target named is T4, AurA (Homo sapiens, UniProt O14965).
T4 construct: screened for activity against several kinases in Jurkat cells; endogenous in cells; host or cells: Jurkat cell lysate
T4 sequence (O14965 1-403): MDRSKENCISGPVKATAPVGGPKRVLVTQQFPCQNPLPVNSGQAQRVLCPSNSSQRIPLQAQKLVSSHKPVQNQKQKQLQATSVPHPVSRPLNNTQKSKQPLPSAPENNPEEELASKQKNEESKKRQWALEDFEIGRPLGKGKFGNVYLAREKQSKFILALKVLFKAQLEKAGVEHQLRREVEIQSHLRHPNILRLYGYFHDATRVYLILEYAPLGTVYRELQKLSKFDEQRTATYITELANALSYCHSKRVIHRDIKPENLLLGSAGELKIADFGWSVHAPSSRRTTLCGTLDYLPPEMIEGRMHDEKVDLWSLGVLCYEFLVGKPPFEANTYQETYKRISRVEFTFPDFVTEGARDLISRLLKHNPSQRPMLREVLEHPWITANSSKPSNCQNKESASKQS
In words: Probe-based (AX9989) kinase profiling in Jurkat lysate: AurA. The following applies: read-out: Kinase inhibition % at indicated screening concentration: AurA; for inhibition at 1 µM: screening concentration 1.0 μM; for inhibition at 0.1 µM: screening concentration 0.1 μM. Summed up:
as §1

T1 sequence (P23458 whole entry): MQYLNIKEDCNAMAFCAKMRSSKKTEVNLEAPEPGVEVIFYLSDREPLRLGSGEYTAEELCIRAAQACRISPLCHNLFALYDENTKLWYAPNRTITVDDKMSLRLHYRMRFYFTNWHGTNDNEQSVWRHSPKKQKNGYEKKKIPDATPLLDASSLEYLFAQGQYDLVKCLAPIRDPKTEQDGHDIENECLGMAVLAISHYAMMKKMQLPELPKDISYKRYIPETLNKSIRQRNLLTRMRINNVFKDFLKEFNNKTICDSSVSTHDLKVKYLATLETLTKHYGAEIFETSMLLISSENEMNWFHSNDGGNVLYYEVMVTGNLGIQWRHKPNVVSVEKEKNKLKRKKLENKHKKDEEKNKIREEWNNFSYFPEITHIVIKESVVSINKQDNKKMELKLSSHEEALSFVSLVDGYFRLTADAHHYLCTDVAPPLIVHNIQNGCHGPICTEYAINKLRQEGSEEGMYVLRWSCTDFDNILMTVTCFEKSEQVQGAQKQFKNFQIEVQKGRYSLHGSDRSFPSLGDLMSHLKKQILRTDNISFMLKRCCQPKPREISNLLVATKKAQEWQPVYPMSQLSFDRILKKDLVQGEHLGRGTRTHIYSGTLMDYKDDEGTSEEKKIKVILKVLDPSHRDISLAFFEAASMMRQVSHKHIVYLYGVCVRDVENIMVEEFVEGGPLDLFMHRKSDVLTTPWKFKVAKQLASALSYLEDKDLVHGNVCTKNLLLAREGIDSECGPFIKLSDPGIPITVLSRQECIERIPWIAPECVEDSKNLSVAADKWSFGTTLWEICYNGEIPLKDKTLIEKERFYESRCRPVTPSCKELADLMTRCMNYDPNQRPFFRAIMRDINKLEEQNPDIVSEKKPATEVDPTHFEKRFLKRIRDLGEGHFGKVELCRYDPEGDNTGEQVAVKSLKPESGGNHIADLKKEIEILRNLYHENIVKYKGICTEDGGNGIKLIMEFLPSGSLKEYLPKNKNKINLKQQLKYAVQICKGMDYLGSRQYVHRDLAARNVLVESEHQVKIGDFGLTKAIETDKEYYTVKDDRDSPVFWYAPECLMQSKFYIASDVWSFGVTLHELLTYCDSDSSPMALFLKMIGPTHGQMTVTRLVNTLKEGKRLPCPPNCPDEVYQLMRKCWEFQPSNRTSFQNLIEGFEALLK

For the molecule `CCOc1cc(C(=O)N2CCN(CCOCCO)CC2)ccc1Nc1cc2c(cn1)N(C)C(=O)c1ccccc1N2C` [Compound 6], the inhibition at 1 µM in experiment [1], in experiment [2], in experiment [3] and in experiment [5] was at most 35% each time. Also, the “Kinase inhibition % at indicated screening concentration: AMPKa1 or AMPKa2” value (“Kinase inhibition %” below) in experiment [4] (screening concentration 1.0 μM) is on record as “E (E is ≦35%)”.

As for `CCOc1cc(C(=O)N2CCCN(C)CC2)ccc1Nc1cc2c(cn1)N(C)C(=O)c1ccccc1N2C` [Compound 8], the inhibition at 1 µM in experiment [1], in experiment [2], in experiment [3] and in experiment [5] was at most 35% in each case. In experiment [4] (screening concentration 1.0 μM), the “Kinase inhibition %” value is recorded as “E (E is ≦35%)”.

`CCOc1cc(C(=O)N2CCN(CC3CC3)CC2)ccc1Nc1cc2c(cn1)N(C)C(=O)c1ccccc1N2C` [Compound 10]: the inhibition at 0.1 µM in experiment [1], in experiment [2], in experiment [3] and in experiment [5] was at most 35% throughout. Further, the “Kinase inhibition %” value in experiment [4] (screening concentration 0.1 μM) is reported as “E (E is ≦35%)”.

On to `CCOc1cc(C(=O)N2CCC(N3CCCC3)CC2)ccc1Nc1cc2c(cn1)N(C)C(=O)c1ccccc1N2C` [Compound 46, 3-(2-Ethoxy-4-(4-(pyrrolidin-1-yl)piperidine-1-carbonyl)phenylamino)-5,11-dimethyl-5H-benzo[e]pyrido[3,4-b][1,4]diazepin-10(11H)-one], for which the inhibition at 1 µM in experiment [1], in experiment [2], in experiment [3] and in experiment [5] was at most 35% throughout. Moreover, the “Kinase inhibition %” value in experiment [4] (screening concentration 1.0 μM) is “E (E is ≦35%)”.

As to `Cc1cc(CN2CC[C@@H](N3CCCC3)C2)ccc1Nc1cc2c(cn1)N(C)C(=O)c1ccccc1N2C` [Compound 49], the inhibition at 0.1 µM in experiment [1], in experiment [2], in experiment [3] and in experiment [5] was at most 35% each time. For the same molecule, in experiment [4] (screening concentration 0.1 μM), the “Kinase inhibition %” value is given as “E (E is ≦35%)”.

With `CCOc1cc(C(N)=O)ccc1Nc1cc2c(cn1)N(C)C(=O)c1ccccc1N2C` [Compound 51], the inhibition at 0.1 µM in experiment [1], in experiment [2], in experiment [3] and in experiment [5] was at most 35% each time. Moreover, the “Kinase inhibition %” value in experiment [4] (screening concentration 0.1 μM) is “E (E is ≦35%)”.

In the case of `CCOc1cc(C(=O)N2CCC(O)CC2)ccc1Nc1cc2c(cn1)N(C)C(=O)c1ccccc1N2C` [Compound 52], the inhibition at 1 µM in experiment [1], in experiment [2], in experiment [3] and in experiment [5] was at most 35% each time. The “Kinase inhibition %” value in experiment [4] (screening concentration 1.0 μM) is reported as “E (E is ≦35%)”.

As to `CN1C(=O)c2occc2N(C)c2cc(N[C@H]3CC[C@H](N)CC3)ncc21` [Compound 53], the inhibition at 1 µM in experiment [1], in experiment [2], in experiment [3] and in experiment [5] was at most 35% throughout. Besides, the “Kinase inhibition %” value in experiment [4] (screening concentration 1.0 μM) is “E (E is ≦35%)”.

Regarding `CCOc1cc(C(=O)NCCCN(CC)CC)ccc1Nc1cc2c(cn1)N(C)C(=O)c1ccccc1N2C` [Compound 54], the inhibition at 1 µM in experiment [1], in experiment [2], in experiment [3] and in experiment [5] was at most 35% each time. Also, in experiment [4] (screening concentration 1.0 μM), the “Kinase inhibition %” value is “E (E is ≦35%)”.

As to `CCOc1cc(C(=O)NCCN(C(C)C)C(C)C)ccc1Nc1cc2c(cn1)N(C)C(=O)c1ccccc1N2C` [Compound 55], the inhibition at 0.1 µM in experiment [1], in experiment [2], in experiment [3] and in experiment [5] was at most 35% throughout. Moreover, in experiment [4] (screening concentration 0.1 μM), the “Kinase inhibition %” value is on record as “E (E is ≦35%)”.

Consider `CCOc1cc(C(=O)N2CC[C@@H](N3CCCCC3)C2)ccc1Nc1cc2c(cn1)N(C)C(=O)c1occc1N2C` [Compound 56], for which the inhibition at 0.1 µM in experiment [1], in experiment [2], in experiment [3] and in experiment [5] was at most 35% throughout. In addition, in experiment [4] (screening concentration 0.1 μM), the “Kinase inhibition %” value is “E (E is ≦35%)”.

In the case of `CCOc1cc(C(=O)NCC2CC2)ccc1Nc1cc2c(cn1)N(C)C(=O)c1ccccc1N2C` [Compound 57], the inhibition at 1 µM in experiment [1], in experiment [2], in experiment [3] and in experiment [5] was at most 35% throughout. Also, the “Kinase inhibition %” value in experiment [4] (screening concentration 1.0 μM) was “E (E is ≦35%)”.

As for `CCOc1cc(C(=O)N2CCC(N3CCN(C)CC3)CC2)ccc1Nc1cc2c(cn1)N(C)C(=O)c1ccccc1N2C` [Compound 61], the inhibition at 1 µM in experiment [1], in experiment [2], in experiment [3] and in experiment [5] was at most 35% in each case. In experiment [4] (screening concentration 1.0 μM), the “Kinase inhibition %” value is “E (E is ≦35%)”.

`CCOc1cc(C(=O)N2CCNCC2)ccc1Nc1cc2c(cn1)N(C)C(=O)c1ccccc1N2C` [Compound 62]: the inhibition at 1 µM in experiment [1], in experiment [2], in experiment [3] and in experiment [5] was at most 35% each time. Moreover, the “Kinase inhibition %” value in experiment [4] (screening concentration 1.0 μM) is “E (E is ≦35%)”.

On to `CCOc1cc(C(=O)N2CCC(OC)CC2)ccc1Nc1cc2c(cn1)N(C)C(=O)c1ccccc1N2C` [Compound 63], for which the inhibition at 1 µM in experiment [1], in experiment [2], in experiment [3] and in experiment [5] was at most 35% in each case. In addition, in experiment [4] (screening concentration 1.0 μM), the “Kinase inhibition %” value is recorded as “E (E is ≦35%)”.

Take `CN1C(=O)c2ccccc2N(C)c2cc(NC3CCC(C(=O)NC4CCOCC4)CC3)ncc21` (stereo not shown) [Compound 64]: the inhibition at 1 µM in experiment [1], in experiment [2], in experiment [3] and in experiment [5] was at most 35% in each case. The “Kinase inhibition %” value in experiment [4] (screening concentration 1.0 μM) is on record as “E (E is ≦35%)”.

As for `CCOc1cc(C(=O)N2CCC(N3CCN(C)CC3)CC2)ccc1Nc1cc2c(cn1)N(C)C(=O)c1occc1N2C` [Compound 65], the inhibition at 0.1 µM in experiment [1], in experiment [2], in experiment [3] and in experiment [5] was at most 35% each time. In experiment [4] (screening concentration 0.1 μM), the “Kinase inhibition %” value is “E (E is ≦35%)”.

The record behind these values is patent US20170008888A1 (KYORIN PHARMACEUTICAL CO., LTD., priority 2014, published 2017).
